Target: human orexin 2 receptor (Homo sapiens (Human), UniProt O43614)
Assay: Human orexin 2 receptor radioligand binding ([3H]-EMPA competition)
Conditions: HEK293 stably expressing human orexin 2 receptor; 2 nM [3H]-EMPA; averages of 2-20 runs; read-out: hOX2 Ki
Description: The in vitro affinity of the compounds of the invention for the rat/human orexin 1 and human orexin 2 receptors was determined by competitive radioligand binding using [^3H](1-(5-(2-fluoro-phenyl)-2-methyl-thiazol-4-yl)-1-((S)-2-(5-phenyl-(1,3,4)oxadiazol-2-ylmethyl)-pyrrolidin-1-yl)-methanone) (Langmead et al., 2004) and [^3H]EMPA (n-ethyl-2[96-methoxy-pyridin-3-yl)-(toluene-2-sulfonyl)-amino]-N-pyridin-3-ylmethyl acetamide), respectively (Langmead et al., 2004, British Journal of Pharmacology 141:340-346; Malherbe et al., 2004, British Journal of Pharmacology 156:1326-41).
Data are analyzed using pc-Sandy macro and graphed on Graphpad Prism 5. For analysis, each concentration point is averaged from triplicate values and the averaged values are plotted on Graphpad Prism. The IC50 was determined by applying the following equation (GraphPad Prism 5.0, San Diego) for one site competition where X=log (concentration) and Y=specific binding. Top denotes the total [^3H]— (1-(5-(2-fluoro-phenyl)-2-methyl-thiazol-4-yl)-1-((S)-2-(5-phenyl-(1,3,4)oxadiazol-2-ylmethyl)-pyrrolidin-1-yl)-methanone) binding, bottom denotes the nonspecific [^3H]— (1-(5-(2-fluoro-phenyl)-2-methyl-thiazol-4-yl)-1-((S)-2-(5-phenyl-(1,3,4)oxadiazol-2-ylmethyl)-pyrrolidin-1-yl)-methanone) binding. Graphpad Prism calculates Ki value from IC50 and the pre-determined Kd values for [^3H]— (1-(5-(2-fluoro-phenyl)-2-methyl-thiazol-4-yl)-1-((S)-2-(5-phenyl-(1,3,4)oxadiazol-2-ylmethyl)-pyrrolidin-1-yl)-methanone) and [^3H]-EMPA. The Ki for each compound is then uploaded into 3DX. Each run comprises individual compounds in triplicate. The data in Table 1 and Table 2 represent averages from between 2-20 runs
Human Orexin 2 Receptor Radioligand Binding Studies
HEK293 stably expressing human orexin 2 receptor (Genebank accession number NM_001526) were grown to confluency in DMEM (Hyclone, cat # SH30022), 10% FBS, 1× Pen/Strep, 1× NaPyruvate, 10 mM HEPES, 600 μg/ml G418 media on 150 cm^2 tissue culture plates, washed with 5 mM EDTA in PBS (HyClone Dulbecco's Phosphate Buffered Saline 1× with Calcium and Magnesium, Cat # SH30264.01, hereafter referred to simply as PBS) and scraped into 50 ml tubes. After centrifugation (2K×G, 5 min at 4° C.), the supernatant was aspirated and the pellets frozen and stored at −80° C. Cells were resuspended in PBS in the presence of 1 tablet of protease inhibitor cocktail (Roche, Cat. #11836145001) per 50 mL. […] Compounds were solubilized in 100% DMSO (Acros Organics, Cat. #61042-1000) and tested over a range of 7 concentration (from 0.1 nM to 10 μM). The final concentration of DMSO in the reactions is equal to or less than 0.1%. Total and nonspecific binding was determined in the absence and presence of 10 μM almorexant. The total volume of each reaction is 200 μL (20 μL of diluted compounds, 80 μL of [^3H]-EMPA diluted in PBS and 100 μL of the cell suspension). Reactions were run for 60 min at room temperature and terminated by filtration through GF/C filter plates (PerkinElmer, Cat. #6005174) presoaked in 0.3% polyethylenimine using the cell harvester (PerkinElmer Filtermate). The plates were washed 3 times by aspirating 30 ml PBS through the plates. Plates were dried in 55° C. oven for 60 min, scintillation fluid was added, and the radioactivity was counted on a Topcount (Packard).

Sequence of human orexin 2 receptor (O43614 whole entry): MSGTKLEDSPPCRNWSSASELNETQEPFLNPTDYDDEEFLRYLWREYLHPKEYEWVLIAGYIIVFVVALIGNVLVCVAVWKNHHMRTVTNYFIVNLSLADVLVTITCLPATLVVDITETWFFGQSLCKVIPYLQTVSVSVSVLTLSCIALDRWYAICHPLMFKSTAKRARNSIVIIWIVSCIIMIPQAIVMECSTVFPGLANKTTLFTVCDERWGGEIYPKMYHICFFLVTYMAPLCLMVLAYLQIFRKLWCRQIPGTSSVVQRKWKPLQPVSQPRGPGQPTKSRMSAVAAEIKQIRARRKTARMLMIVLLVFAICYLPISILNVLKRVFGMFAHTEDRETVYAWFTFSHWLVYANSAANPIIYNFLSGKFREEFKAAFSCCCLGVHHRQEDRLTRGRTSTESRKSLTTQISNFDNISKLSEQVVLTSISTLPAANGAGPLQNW

| Ki | Compound |
| --- | --- |
| 585 nM | Cc1cnc(C(=O)N2C(C)C3CC(Nc4ccc(C(F)(F)F)cn4)C2C3)c(-n2nccn2)c1 (racemic) [Example 61, (R/S)-(5-methyl-3-(2H-1,2,3-triazol-2-yl)pyridin-2-yl)(3-methyl-6-((5-(trifluoromethyl)pyridin-2-yl)amino)-2-azabicyclo[2.2.1]heptan-2-yl)methanone] |
| 689 nM | C[C@@H]1[C@H]2C[C@@H](Oc3ccc(C(F)(F)F)cn3)[C@H](C2)N1C(=O)c1c(F)cccc1-n1nccn1 (relative stereo) [Example 30, (2-fluoro-6-(2H-1,2,3-triazol-2-yl)phenyl)((1S*,3R*,4R*,6R*)-3-methyl-6-((5-(trifluoromethyl)pyridin-2-yl)oxy)-2-azabicyclo[2.2.1]heptan-2-yl)methanone] |
| 2000 nM | O=C(c1ccccc1-n1nccn1)N1C(CF)C2CC(Oc3ccc(C(F)(F)F)cn3)C1C2 (racemic) [Example 73, (R/S)-(2-(2H-1,2,3-triazol-2-yl)phenyl)(3-(fluoromethyl)-6-((5-(trifluoromethyl)pyridin-2-yl)oxy)-2-azabicyclo[2.2.1]heptan-2-yl)methanone] |
| > 10000 nM | Cc1ccc(-n2nccn2)c(C(=O)N2C(C)C3CC(Nc4cnc(C(F)(F)F)cn4)C2C3)n1 (single isomer, unassigned) [Example 69A, (6-methyl-3-(2H-1,2,3-triazol-2-yl)pyridin-2-yl)((1R*,3S*,4R*,6S*)-3-methyl-6-((5-(trifluoromethyl)pyrazin-2-yl)amino)-2-azabicyclo[2.2.1]heptan-2-yl)methanone] |
| 1600 nM | CCOc1ccc(C)nc1C(=O)N1C(C)C2CC(Oc3ccc(C(F)(F)F)cn3)C1C2 (racemic) [Example 13, (R/S)-(3-ethoxy-6-methylpyridin-2-yl)(3-methyl-6-((5-(trifluoromethyl)pyridin-2-yl)oxy)-2-azabicyclo[2.2.1]heptan-2-yl)methanone] |
| 324 nM | C[C@@H]1[C@H]2C[C@@H](Nc3ccc(C(F)(F)F)cn3)[C@H](C2)N1C(=O)c1ncccc1-n1nccn1 (relative stereo) [Example 64, (3-(2H-1,2,3-triazol-2-yl)pyridin-2-yl)((1S*,3R*,4S*,6R*)-3-methyl-6-((5-(trifluoromethyl)pyridin-2-yl)amino)-2-azabicyclo[2.2.1]heptan-2-yl)methanone] |
| > 10000 nM | CC1C2CC(Nc3cnc(C(F)(F)F)cn3)C(C2)N1C(=O)c1ccccc1-n1nccn1 (single isomer, unassigned) [Example 68A, (2-(2H-1,2,3-triazol-2-yl)phenyl)((1R*,3S*,4R*,6S*)-3-methyl-6-((5-(trifluoromethyl)pyrazin-2-yl)amino)-2-azabicyclo[2.2.1]heptan-2-yl)methanone] |
| 947 nM | CC1C2CC(Oc3ccc(C(F)(F)F)cn3)C(C2)N1C(=O)c1ccc(F)cc1-c1ncccn1 (single isomer, unassigned) [Example 17B, (4-fluoro-2-(pyrimidin-2-yl)phenyl)((1S*,3R*,4R*,6R*)-3-methyl-6-((5-(trifluoromethyl)pyridin-2-yl)oxy)-2-azabicyclo[2.2.1]heptan-2-yl)methanone] |
| 317 nM | Cc1cnc(C(=O)N2[C@H](C)[C@H]3C[C@@H](Nc4ccc(C(F)(F)F)cn4)[C@@H]2C3)c(-n2nccn2)c1 (relative stereo) [Example 66, (5-methyl-3-(2H-1,2,3-triazol-2-yl)pyridin-2-yl)((1S*,3R*,4S*,6R*)-3-methyl-6-((5-(trifluoromethyl)pyridin-2-yl)amino)-2-azabicyclo[2.2.1]heptan-2-yl)methanone] |
| > 10000 nM | Cc1cnc(C(=O)N2[C@H](C)[C@H]3C[C@@H](Oc4cnc(C(F)(F)F)cn4)[C@@H]2C3)c(-n2nccn2)c1 (relative stereo) [Example 48, (5-methyl-3-(2H-1,2,3-triazol-2-yl)pyridin-2-yl)((1S*,3R*,4R*,6R*)-3-methyl-6-((5-(trifluoromethyl)pyrazin-2-yl)oxy)-2-azabicyclo[2.2.1]heptan-2-yl)methanone] |
| 146 nM | CC1C2CC(Nc3cnc(C(F)(F)F)cn3)C(C2)N1C(=O)c1ccccc1-n1nccn1 (single isomer, unassigned) [Example 5B, (2-(2H-1,2,3-triazol-2-yl)phenyl)((1S*,3S*,4S*,6R*)-3-methyl-6-((5-(trifluoromethyl)pyrazin-2-yl)amino)-2-azabicyclo[2.2.1]heptan-2-yl)methanone] |
| > 10000 nM | CC1C2CC(Oc3ccc(C(F)(F)F)cn3)C(C2)N1C(=O)c1ccc(F)cc1-c1ncccn1 (single isomer, unassigned) [Example 17A, (4-fluoro-2-(pyrimidin-2-yl)phenyl)((1R*,3S*,4S*,6S*)-3-methyl-6-((5-(trifluoromethyl)pyridin-2-yl)oxy)-2-azabicyclo[2.2.1]heptan-2-yl)methanone] |
| 195 nM | Cc1ccc(-n2nccn2)c(C(=O)N2[C@H](C)[C@H]3C[C@@H](Oc4cnc5ccccc5n4)[C@@H]2C3)n1 (relative stereo) [Example 183, (6-methyl-3-(2H-1,2,3-triazol-2-yl)pyridin-2-yl)((1S*,3R*,4R*,6R*)-3-methyl-6-(quinoxalin-2-yloxy)-2-azabicyclo[2.2.1]heptan-2-yl)methanone] |
| 1600 nM | CC1C2CC(Oc3ccc(C(F)(F)F)cn3)C(C2)N1C(=O)c1cc(F)ccc1-c1ncccn1 (racemic) [Example 18, (R/S)-(5-fluoro-2-(pyrimidin-2-yl)phenyl)(−3-methyl-6-((5-(trifluoromethyl)pyridin-2-yl)oxy)-2-azabicyclo[2.2.1]heptan-2-yl)methanone] |
| 2100 nM | Cc1cnc(C(=O)N2C(C)C3CC(Oc4ccc(C(F)(F)F)cn4)C2C3)c(-n2nccn2)c1 (racemic) [Example 11, (R/S)-(5-methyl-3-(2H-1,2,3-triazol-2-yl)pyridin-2-yl)(3-methyl-6-((5-(trifluoromethyl)pyridin-2-yl)oxy)-2-azabicyclo[2.2.1]heptan-2-yl)methanone] |
| 3100 nM | CC1C2CC(Oc3ccc(C(F)(F)F)cn3)C(C2)N1C(=O)c1cccc(F)c1-c1ncc(F)cn1 (racemic) [Example 20, (R/S)-(3-fluoro-2-(5-fluoropyrimidin-2-yl)phenyl)(3-methyl-6-((5-(trifluoromethyl)pyridin-2-yl)oxy)-2-azabicyclo[2.2.1]heptan-2-yl)methanone] |
| 664 nM | Cc1ccc(-n2nccn2)c(C(=O)N2C(C)C3CC(Nc4cnc(C(F)(F)F)cn4)C2C3)n1 (single isomer, unassigned) [Example 6, (R/S)-(6-methyl-3-(2H-1,2,3-triazol-2-yl)pyridin-2-yl)(3-methyl-6-((5-(trifluoromethyl)pyrazin-2-yl)amino)-2-azabicyclo[2.2.1]heptan-2-yl)methanone] |
| > 10000 nM | CC1C2CC(Oc3ccc(C(F)(F)F)cn3)C(C2)N1C(=O)c1cccc(F)c1-c1ncc(F)cn1 (single isomer, unassigned) [Example 20A, (3-fluoro-2-(5-fluoropyrimidin-2-yl)phenyl)((1R*,3S*,4S*,6S*)-3-methyl-6-((5-(trifluoromethyl)pyridin-2-yl)oxy)-2-azabicyclo[2.2.1]heptan-2-yl)methanone] |
| 1200 nM | [2H]C1([2H])[C@H]2C[C@@H]([C@@H]1Oc1ccc(C(F)(F)F)cn1)N(C(=O)c1ncc(C)cc1-n1nccn1)[C@@H]2C [Example 200, [(1R,3R,4S,6R)-2,2-dideuterio-6-methyl-3-[[5-(trifluoromethyl)-2-pyridyl]oxy]-5-azabicyclo[2.2.1]heptan-5-yl]-[5-methyl-3-(triazol-2-yl)-2-pyridyl]methanone] |
| > 10000 nM | Cc1cnc(-n2nccn2)c(C(=O)N2C(CF)C3CC(Oc4ccc(C(F)(F)F)cn4)C2C3)c1 (racemic) [Example 72] |
